Results reported in the NIST ThermoML archive (doi:10.1016/j.jct.2005.12.005).

Assays:
[1] = xn = mol fraction of the nth substance listed; conditions: 101 kPa, Liquid; for speed of sound: Sing-around technique in a fixed-path interferometer
[2] = refractive index (Na D-line) (dimensionless); xn = mol fraction of the nth substance listed; conditions: 101 kPa, Liquid
[3] = 101 kPa, Liquid
[4] = refractive index (Na D-line) (dimensionless); conditions: 101.33 kPa, Liquid

CC1CCCCC1 [methylcyclohexane] + Cc1ccccc1
Conditions | mass density, 298.15 K [kg/m3] | mass density, 303.15 K [kg/m3] | mass density, 308.15 K [kg/m3] | refractive index, 298.15 K | refractive index, 303.15 K | refractive index, 308.15 K | speed of sound, 298.15 K [m/s] | viscosity, 298.15 K [mPa·s] | viscosity, 303.15 K [mPa·s] | viscosity, 308.15 K [mPa·s]
[1], x1 = 0.1027 | 849.5 | 844.9 | 840.3 | – | – | – | 1304 | 0.551 | 0.52 | 0.49
[1], x1 = 0.205 | 837.5 | 832.9 | 828.3 | – | – | – | 1295 | 0.547 | 0.518 | 0.489
[1], x1 = 0.3034 | 826.6 | 822 | 817.5 | – | – | – | 1285 | 0.548 | 0.517 | 0.487
[1], x1 = 0.4043 | 816 | 811.5 | 807 | – | – | – | 1275 | 0.556 | 0.523 | 0.491
[1], x1 = 0.5031 | 806.3 | 801.8 | 797.3 | – | – | – | 1266 | 0.564 | 0.532 | 0.5
[1], x1 = 0.5988 | 797.3 | 792.8 | 788.4 | – | – | – | 1256 | 0.577 | 0.544 | 0.51
[1], x1 = 0.7061 | 787.8 | 783.4 | 779 | – | – | – | 1246 | 0.592 | 0.558 | 0.524
[1], x1 = 0.8005 | 780 | 775.6 | 771.2 | – | – | – | 1237 | 0.614 | 0.577 | 0.54
[1], x1 = 0.8984 | 772.4 | 768 | 763.7 | – | – | – | 1227 | 0.643 | 0.603 | 0.563
[1], x1 = 1 | 765 | 760.7 | 756.3 | – | – | – | 1217 | 0.676 | 0.631 | 0.59
[2], x1 = 0.1027 | – | – | – | 1.4838 | 1.4811 | 1.4783 | – | – | – | –
[2], x1 = 0.205 | – | – | – | 1.475 | 1.4723 | 1.4696 | – | – | – | –
[2], x1 = 0.3034 | – | – | – | 1.4666 | 1.4641 | 1.4615 | – | – | – | –
[2], x1 = 0.4043 | – | – | – | 1.4586 | 1.4561 | 1.4537 | – | – | – | –
[2], x1 = 0.5031 | – | – | – | 1.4511 | 1.4486 | 1.4461 | – | – | – | –
[2], x1 = 0.5988 | – | – | – | 1.4443 | 1.4418 | 1.4392 | – | – | – | –
[2], x1 = 0.7061 | – | – | – | 1.4373 | 1.4347 | 1.4321 | – | – | – | –
[2], x1 = 0.8005 | – | – | – | 1.4315 | 1.4289 | 1.4263 | – | – | – | –
[2], x1 = 0.8984 | – | – | – | 1.4261 | 1.4234 | 1.4208 | – | – | – | –
[2], x1 = 1 | – | – | – | 1.4217 | 1.4192 | 1.4163 | – | – | – | –

CC1CCCCC1 [methylcyclohexane] + c1ccccc1
Conditions | mass density, 298.15 K [kg/m3] | mass density, 303.15 K [kg/m3] | mass density, 308.15 K [kg/m3] | refractive index, 298.15 K | refractive index, 303.15 K | refractive index, 308.15 K | speed of sound, 298.15 K [m/s] | viscosity, 298.15 K [mPa·s] | viscosity, 303.15 K [mPa·s] | viscosity, 308.15 K [mPa·s]
[1], x1 = 0.104 | 855.9 | 850.7 | 845.5 | – | – | – | 1293 | 0.584 | 0.546 | 0.509
[1], x1 = 0.2045 | 840.8 | 835.8 | 830.7 | – | – | – | 1284 | 0.566 | 0.53 | 0.494
[1], x1 = 0.302 | 827.6 | 822.7 | 817.8 | – | – | – | 1276 | 0.561 | 0.527 | 0.492
[1], x1 = 0.4006 | 815.8 | 811 | 806.2 | – | – | – | 1267 | 0.556 | 0.523 | 0.49
[1], x1 = 0.5007 | 805 | 800.3 | 795.6 | – | – | – | 1259 | 0.559 | 0.527 | 0.496
[1], x1 = 0.6004 | 795.3 | 790.6 | 786 | – | – | – | 1250 | 0.571 | 0.537 | 0.504
[1], x1 = 0.7056 | 785.9 | 781.4 | 776.8 | – | – | – | 1242 | 0.597 | 0.564 | 0.531
[1], x1 = 0.8033 | 778.5 | 774 | 769.5 | – | – | – | 1234 | 0.617 | 0.583 | 0.549
[1], x1 = 0.8982 | 771.4 | 767 | 762.6 | – | – | – | 1225 | 0.647 | 0.607 | 0.567
[1], x1 = 1 | 765 | 760.7 | 756.3 | – | – | – | 1217 | 0.676 | 0.631 | 0.59
[2], x1 = 0.104 | – | – | – | 1.484 | 1.481 | 1.4779 | – | – | – | –
[2], x1 = 0.2045 | – | – | – | 1.4728 | 1.4702 | 1.4675 | – | – | – | –
[2], x1 = 0.302 | – | – | – | 1.4628 | 1.4604 | 1.458 | – | – | – | –
[2], x1 = 0.4006 | – | – | – | 1.455 | 1.4524 | 1.4499 | – | – | – | –
[2], x1 = 0.5007 | – | – | – | 1.4475 | 1.4448 | 1.4422 | – | – | – | –
[2], x1 = 0.6004 | – | – | – | 1.441 | 1.4384 | 1.4357 | – | – | – | –
[2], x1 = 0.7056 | – | – | – | 1.4341 | 1.4316 | 1.4292 | – | – | – | –
[2], x1 = 0.8033 | – | – | – | 1.429 | 1.4262 | 1.4235 | – | – | – | –
[2], x1 = 0.8982 | – | – | – | 1.4245 | 1.4219 | 1.4192 | – | – | – | –
[2], x1 = 1 | – | – | – | 1.4217 | 1.4192 | 1.4163 | – | – | – | –

Cc1ccccc1 [toluene]
Conditions | mass density, 298.15 K [kg/m3] | mass density, 303.15 K [kg/m3] | mass density, 308.15 K [kg/m3] | refractive index, 298.15 K | refractive index, 303.15 K | refractive index, 308.15 K | viscosity, 298.15 K [mPa·s] | viscosity, 303.15 K [mPa·s] | viscosity, 308.15 K [mPa·s]
[3] | 862.3 | 857.6 | 852.9 | – | – | – | 0.559 | 0.526 | 0.497
[4] | – | – | – | 1.4931 | 1.4902 | 1.4874 | – | – | –

Conditions | speed of sound [m/s]
[3], 298.15 K, Sing-around technique in a fixed-path interferometer | 1314

Cc1ccccc1 [toluene] + CC1CCCCC1
x2 = 0
Conditions | mass density, 298.15 K [kg/m3] | mass density, 303.15 K [kg/m3] | mass density, 308.15 K [kg/m3] | refractive index, 298.15 K | refractive index, 303.15 K | refractive index, 308.15 K | speed of sound, 298.15 K [m/s] | viscosity, 298.15 K [mPa·s] | viscosity, 303.15 K [mPa·s] | viscosity, 308.15 K [mPa·s]
[1] | 862.3 | 857.6 | 852.9 | – | – | – | 1314 | 0.559 | 0.526 | 0.497
[2] | – | – | – | 1.4931 | 1.4902 | 1.4874 | – | – | – | –
